Key:
RPTEC/hTERT cells [1] = experiment: Red Oil staining of RPTEC/hTERT cells; format: cell-based, human; details: cisplatin 50 μM, 25 μM KW-6002, 48 hours
Procedure: FIG. 6. KW6002 alleviates the cisplatin-induced nephrotoxicity associated with apoptosis, lipid metabolism, and oxidative stress. (A) Tail moment assessed by comet assay; 50 cells/condition were analyzed. (B and C) KW6002 attenuates cisplatin-induced renal lipid accumulation, assessed by Red Oil staining. […] Results are the mean±SEM (n=6-9 mice/group). (F-H) KW6002 attenuated cisplatin-induced oxidative stress in RPTEC/hTERT1 cells. (F and G) Gene expression of Nrf2 (F) and HO1 (G). […] Results are the mean±SEM (n=3 independent experiments).
10 μm frozen kidney mouse sections were fixed with ethanol (60%) then incubated for 15 min with Oil Red O Solution (Fisher Biotech) dissolved in isopropanol. After several washes with ddH2O, samples were incubated 3 min with hematoxylin. Lipid droplets are stained in red whereas nuclei appeared blue. […] RPTEC/hTERT cells were fixed with ethanol (60%) then incubated for 15 min with Oil Red O Solution. The cells were washed three times with ddH2O and incubated 3 min with hematoxylin. Coverslips were rinsed with H2O before mounting on microscope slides using glycerol gelatin aqueous slide mounting medium (Sigma). Quantifications were performed blindly using ImageJ software. […] The resulting red color images were quantified using a custom threshold (0.173 for RPTEC/hTERT cells and 0.140 for kidney stainings).

RPTEC/hTERT cells [2] = experiment: Cell concentrations of platinum; format: cell-based, human; details: cisplatin 50 μM, KW-6002 25 μM, 48 hours
Procedure: Tissues (35 mg) and cell pellets were first mineralized with hydrochloric acid (30% Suprapur, Merck) or nitric acid (69.5%, Carlo Erba), respectively. Analysis of tissue samples was performed by Graphite Furnace Atomic Absorption Spectrometry (GF-AAS) using an Aanalyst 800 (Perkin Elmer)., while cell samples analysis was performed by Inductively Coupled Plasma Mass Spectrometry (ICP-MS) using an ICAP-Qc (Thermo Scientific). Platinum concentration was finally normalized to the accurately measured kidney mass, or to the number of cells previously assessed.

[3] = system: LLC1 tumors in C57BL6/J mice; experiment: LLC1 in vivo tumor model (syngeneic, sub-chronic cisplatin)
Procedure: FIG. 1. Schematic representation of the different animal procedures. (A) Acute cisplatin-induced kidney injury. […] (B) Sub-chronic cisplatin-induced kidney injury. […] (C) KW-6002 administration schedule in the acute model. […] (D) KW-6002 administration schedule in the sub-chronic model.
LLC1 cells (Lewis Lung Cancer cells, ATCC® CRL-1642™) were cultured in DMEM with 10% fetal calf serum and penicillin-streptomycin. LLC1 cells ([…]) in PBS: matrigel (1:1, for a total volume of 100 μL) were subcutaneously injected in the right flank of animals. Tumors were measured twice a week with calipers and their volumes were estimated using the following equation: ½ (length×width2).
Prior sacrifice by cervical dislocation, retro-orbital blood samples were collected in heparinized tubes and centrifuged for 10 min at 2000 rpm at room temperature. Renal function was assessed by Blood urea nitrogen (BUN) measurement using a AU480 Chemistry Analyzer (Beckman Coulter). At the time of sacrifice, kidneys or LLC1 tumors were harvested and stored in either “RNA later” solution (Thermo Fisher), 4% neutral buffered formalin or snap-frozen in liquid nitrogen.
Paraffin-embedded sections (3 μm thick) were deparaffinized with xylene and rehydrated in successive ethanol dilutions. Then, antigen retrieval was done by incubation in sub-boiling 10 mM sodium citrate buffer. Tissues were permeabilized in a 0.4% Triton X-100 solution, and nonspecific binding was blocked with a 5% BSA solution in TBS for 2 hours. Sections were then incubated overnight with an anti-γH2AX antibodies (1:50; no. 9718, Cell Signaling Technology). After washing, the secondary antibody (A10042) was incubated for 45 minutes at room temperature. Again, after washing, the nuclei were stained with a 300 nM DAPI solution (D1306, Life Technologies, Thermo Fisher Scientific). The slides were analyzed using a Zeiss LSM 880 confocal microscope. Quantification was performed using ImageJ. For immunofluorescence studies in free-floating sections, mice were deeply anesthetized with pentobarbital sodium (50 mg/kg, i.p.) and then transcardially perfused with cold NaCl (0.9%) and 4% paraformaldehyde in PBS (pH 7.4). Kidneys were removed, post-fixed for 24 hours in 4% paraformaldehyde, and cryoprotected in 30% sucrose before being frozen at −40° C. in isopentane (methyl-butane) and stored at −80° C. Longitudinal kidney sections (40 μm) were obtained using a Leica cryostat. Free-floating sections were stored in PBSazide (0.2%) at 4° C. Longitudinal kidney sections were incubated with a donkey serum (D9663, MilliporeSigma) at 10% in PBS Triton X-100 (0.2%) for 1 hour and then incubated with anti-A2AR primary antibody (1:50; GP-Af1000, Frontiers Institute) for 72 hours at 4° C. in Signal Boost (8114, Cell Signaling Technology). Alexa Fluor 568-conjugated secondary antibodies (1:500; Life Technologies, Thermo Fisher Scientific) were incubated overnight at room temperature. Lectin staining was performed by incubating sections for 1 hour at room temperature with Lotus tetragonolobus FITC conjugate (Vector Laboratories, FL-1321-2) diluted to 2 μg/mL in blocking medium. Sections were counterstained with DAPI (1:5,000; no. 62247, Thermo Fisher Scientific) and mounted on superfrost slides and left to dry. Then, they were covered with Vectashield Vibrance Antifade Mounting Medium (H-1700, Vector Laboratories). Images were acquired using a Zeiss LSM 710 confocal laser-scanning microscope at ×20 magnification. 3D reconstruction of confocal image stacks was performed using Imaris software (Bitplane).
Reverse transcription was performed on 1 μg of RNA using high-capacity cDNA reverse transcription kit (Thermo Fisher), according the manufacturer's recommendation. Real time PCR was performed on a StepOne device using Taqman Gene Expression Master Mix (Thermo Fisher), following manufacturer's recommendations. […]

In the case of `CCn1c(=O)c2c(nc(/C=C/c3ccc(OC)c(OC)c3)n2C)n(CC)c1=O` [KW-6002, 8-[(E)-2-(3,4-dimethoxyphenyl)vinyl]-1,3-diethyl-7-methyl-3,7-dihydro-1H-purine-2,6-dione], the “lipid accumulation induced by cisplatin” value (RPTEC/hTERT cells [1]) is reported as “significantly reduced”, the “accumulation of cisplatin (platinum) in cells” value (RPTEC/hTERT cells [2]) is reported as “limits the accumulation of cisplatin” and the “cisplatin accumulation (platinum levels) in the kidney” value ([3]; KW-6002-treated mice, FIG. 4A) is reported as “lowered”. The “cisplatin accumulation (platinum levels) in the tumors” value ([3]; KW-6002-treated mice, FIG. 4B) was “remained unchanged”, the “anti-tumoral response to cisplatin (tumor size)” value ([3]; co-treatment with cisplatin, FIG. 3) was “did not compromise the anti-tumoral response to cisplatin” and the “cisplatin-induced DNA damage, H2AX+ cells in tumors” value ([3]; in vivo LLC1 syngeneic model) was “increased number of H2AX+ cells”. For the same molecule, the “expression of some efflux transporters in kidneys” value ([3]; qPCR, FIG. 4A) was “significantly increased”, the “transporter expression in tumors” value ([3]; qPCR, FIG. 4B) was “no expression changes” and the “ability to protect from cisplatin-induced kidney injury” value ([3]; tumor-bearing mice) was “preserved”.

From US20250161312A1, “A METHOD FOR THE TREATMENT OF CHEMOTHERAPEUTIC DRUG-INDUCED NEPHROTOXICITY” (INSTITUT NATIONAL DE LA SANTÉ ET DE LA RECHERCHE MÉDICALE, priority 2022, published 2025)
